Data: EP0918774B9, “ANDROGEN RECEPTOR MODULATOR COMPOUNDS AND METHODS” (LIGAND PHARMACEUTICALS INCORPORATED, priority 1996, dated 1997)

What was measured:
ER [1] = molecular target: T1, ER (Homo sapiens, UniProt P03372); test: Co-transfection assay, ER agonist mode; type: cell-based
T1 construct: expressed in transfected cells; host or cells: CV-1 cells
Method: (§1) CV-1 cells (African green monkey kidney fibroblasts) were cultured in the presence of Dulbecco's Modified Eagle Medium (DMEM) supplemented with 10% charcoal resinstripped fetal bovine serum then transferred to 96-well microtiter plates one day prior to transfection.
(§2) Three to four replicates were used for each sample.
(§3) After 40 hours, the cells were washed with PBS, lysed with a Triton X-100-based buffer and assayed for LUC and β-Gal activities using a luminometer or spectrophotometer, respectively. For each replicate, the normalized response (NR) was calculated as: LUC response/β-Gal rate where β-Gal rate = β-Gal•1x10^-5/β-Gal incubation time.

ER [2] = molecular target: T1, ER; test: Co-transfection assay, ER antagonist mode; type: cell-based
Method: as §1, §2, §3

GR = molecular target: T2, GR (Homo sapiens, UniProt P04150); test: cell-based
T2 sequence (P04150 1-777): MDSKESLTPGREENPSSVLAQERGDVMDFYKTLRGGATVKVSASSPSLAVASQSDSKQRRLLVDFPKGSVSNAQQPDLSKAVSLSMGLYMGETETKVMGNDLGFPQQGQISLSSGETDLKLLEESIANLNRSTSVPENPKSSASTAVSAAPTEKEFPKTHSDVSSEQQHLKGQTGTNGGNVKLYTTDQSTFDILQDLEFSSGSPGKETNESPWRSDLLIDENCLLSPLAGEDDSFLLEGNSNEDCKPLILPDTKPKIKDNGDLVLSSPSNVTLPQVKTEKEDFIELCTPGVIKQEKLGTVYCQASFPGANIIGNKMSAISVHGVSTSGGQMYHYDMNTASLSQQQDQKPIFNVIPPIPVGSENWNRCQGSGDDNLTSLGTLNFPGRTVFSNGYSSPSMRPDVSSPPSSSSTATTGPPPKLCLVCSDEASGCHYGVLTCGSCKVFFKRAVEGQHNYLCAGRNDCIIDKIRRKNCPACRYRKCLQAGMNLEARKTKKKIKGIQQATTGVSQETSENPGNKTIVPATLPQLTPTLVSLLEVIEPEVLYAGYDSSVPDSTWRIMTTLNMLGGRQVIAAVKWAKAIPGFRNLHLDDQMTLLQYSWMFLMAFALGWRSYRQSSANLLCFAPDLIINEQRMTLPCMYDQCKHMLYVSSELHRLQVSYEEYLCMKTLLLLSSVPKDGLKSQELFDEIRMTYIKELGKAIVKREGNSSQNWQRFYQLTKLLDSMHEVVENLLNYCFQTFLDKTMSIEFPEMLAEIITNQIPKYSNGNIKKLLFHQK
Method: as §1, §2, §3

PR = molecular target: T3, PR (Homo sapiens, UniProt P06401); test: Co-transfection assay, PR agonist mode; type: cell-based; set-up: expressed in transfected cells; host or cells: CV-1 cells
T3 sequence (P06401 1-933): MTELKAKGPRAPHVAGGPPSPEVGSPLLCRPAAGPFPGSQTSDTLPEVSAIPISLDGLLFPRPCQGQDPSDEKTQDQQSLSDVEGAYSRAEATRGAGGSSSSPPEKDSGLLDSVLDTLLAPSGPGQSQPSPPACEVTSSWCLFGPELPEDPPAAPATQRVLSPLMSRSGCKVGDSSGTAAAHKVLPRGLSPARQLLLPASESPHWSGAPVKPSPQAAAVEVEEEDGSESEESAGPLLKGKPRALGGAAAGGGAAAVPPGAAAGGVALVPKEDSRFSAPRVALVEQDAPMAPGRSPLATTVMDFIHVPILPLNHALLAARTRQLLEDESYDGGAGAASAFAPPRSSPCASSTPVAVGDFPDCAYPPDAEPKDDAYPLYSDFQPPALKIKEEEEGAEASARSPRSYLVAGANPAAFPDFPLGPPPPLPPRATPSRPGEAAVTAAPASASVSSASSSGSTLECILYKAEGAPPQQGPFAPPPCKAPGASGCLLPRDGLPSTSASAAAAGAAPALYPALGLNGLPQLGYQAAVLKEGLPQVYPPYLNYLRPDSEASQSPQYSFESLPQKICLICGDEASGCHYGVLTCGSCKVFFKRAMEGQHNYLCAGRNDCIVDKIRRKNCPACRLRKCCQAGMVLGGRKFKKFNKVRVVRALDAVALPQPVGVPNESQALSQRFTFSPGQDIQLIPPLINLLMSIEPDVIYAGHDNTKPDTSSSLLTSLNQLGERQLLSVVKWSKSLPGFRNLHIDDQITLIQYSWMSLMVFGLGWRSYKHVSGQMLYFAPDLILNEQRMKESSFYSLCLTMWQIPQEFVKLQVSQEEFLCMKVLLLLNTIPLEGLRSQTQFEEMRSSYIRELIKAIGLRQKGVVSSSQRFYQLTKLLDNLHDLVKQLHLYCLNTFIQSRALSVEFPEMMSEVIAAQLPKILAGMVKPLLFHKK
Method: as §1, §2, §3

T1 sequence (P03372 whole entry): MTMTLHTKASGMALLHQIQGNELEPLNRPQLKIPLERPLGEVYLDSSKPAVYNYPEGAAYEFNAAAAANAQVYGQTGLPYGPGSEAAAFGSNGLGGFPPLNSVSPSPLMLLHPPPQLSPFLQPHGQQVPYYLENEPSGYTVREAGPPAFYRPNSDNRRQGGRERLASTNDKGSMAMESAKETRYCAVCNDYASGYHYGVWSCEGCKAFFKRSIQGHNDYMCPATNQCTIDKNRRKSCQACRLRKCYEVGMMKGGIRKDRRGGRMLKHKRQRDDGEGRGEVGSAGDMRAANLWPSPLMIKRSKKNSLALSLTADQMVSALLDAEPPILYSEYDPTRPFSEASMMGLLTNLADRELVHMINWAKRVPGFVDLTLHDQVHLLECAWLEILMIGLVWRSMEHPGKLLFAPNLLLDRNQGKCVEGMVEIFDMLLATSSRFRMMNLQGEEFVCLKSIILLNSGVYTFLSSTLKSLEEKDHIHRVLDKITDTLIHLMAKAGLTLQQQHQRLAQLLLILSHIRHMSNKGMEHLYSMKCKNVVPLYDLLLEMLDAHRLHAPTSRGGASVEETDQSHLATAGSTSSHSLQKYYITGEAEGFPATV

CC12CCCN1c1cc3nc(O)cc(C(F)(F)F)c3cc1CC2 (racemic) [Compound 101, (R/S)-6,7,7a,11-Tetrahydro-7a-methyl-4-trifluoromethyl-2-pyridono[5,6-g]pyrrolidino[1,2-a]quinoline]
> 10 µM: EC50 (ER [1]) | IC50 (ER [2]) | IC50 (GR) | EC50 (PR)

CC12CCCN1c1cc3[nH]c(=O)c(F)c(C(F)(F)F)c3cc1CC2 (racemic) [Compound 102, (R/S)-3-Fluoro-6,7,7a,11-tetrahydro-7a-methyl-4-trifluoromethyl-2-pyridono[5,6-g]pyrrolidino[1,2-a]quinoline]
> 10 µM: EC50 (ER [1]) | IC50 (ER [2]) | IC50 (GR) | EC50 (PR)
